Experimental data published in PubChem BioAssay (NCI).
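Five compound concentrations were applied to cells in 96-well plates for 48 hours; endpoints were derived by simple linear interpolation of the resulting dose-response curve. Definition used: TGI = concentration required for complete inhibition of growth.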

How the values were obtained:
Assay in all cases: NCI anticancer screen, dose series, 48 h
SW-620 colon = system: SW-620 colon
NCI/ADR-RES ovarian = system: NCI/ADR-RES ovarian
A549 NSCLC = system: A549 NSCLC
MOLT-4 leukemia = system: MOLT-4 leukemia
T-47D breast = system: T-47D breast
SNB-19 CNS = system: SNB-19 CNS
U251 CNS = system: U251 CNS
HL-60(TB) leukemia = system: HL-60(TB) leukemia
HCT-116 colon = system: HCT-116 colon
HOP-92 NSCLC = system: HOP-92 NSCLC
RXF 393 renal = system: RXF 393 renal
A498 renal = system: A498 renal
RPMI-8226 leukemia = system: RPMI-8226 leukemia
BT-549 breast = system: BT-549 breast
NCI-H460 lung = system: NCI-H460 lung
IGROV1 ovarian = system: IGROV1 ovarian
OVCAR-5 ovarian = system: OVCAR-5 ovarian
SF-295 CNS = system: SF-295 CNS
SK-OV-3 ovarian = system: SK-OV-3 ovarian
HCC-2998 colon = system: HCC-2998 colon
SNB-75 CNS = system: SNB-75 CNS
OVCAR-8 ovarian = system: OVCAR-8 ovarian
HS 578T breast = system: HS 578T breast
SK-MEL-28 melanoma = system: SK-MEL-28 melanoma
SF-539 CNS = system: SF-539 CNS
MDA-N = system: MDA-N
SN12C renal = system: SN12C renal
NCI-H23 lung = system: NCI-H23 lung
K-562 leukemia = system: K-562 leukemia
HCT-15 colon = system: HCT-15 colon
786-0 renal = system: 786-0 renal
UACC-62 melanoma = system: UACC-62 melanoma
CAKI-1 renal = system: CAKI-1 renal
EKVX NSCLC = system: EKVX NSCLC
TK-10 renal = system: TK-10 renal
HT29 colon = system: HT29 colon
M14 melanoma = system: M14 melanoma
MCF7 breast = system: MCF7 breast
UO-31 renal = system: UO-31 renal
HOP-62 NSCLC = system: HOP-62 NSCLC
MDA-MB-231 breast = system: MDA-MB-231 breast
LOX IMVI melanoma = system: LOX IMVI melanoma
SF-268 CNS = system: SF-268 CNS
PC-3 prostate = system: PC-3 prostate
MDA-MB-435 = system: MDA-MB-435
COLO 205 colon = system: COLO 205 colon
DU-145 prostate = system: DU-145 prostate
CCRF-CEM leukemia = system: CCRF-CEM leukemia
ACHN renal = system: ACHN renal
MALME-3M melanoma = system: MALME-3M melanoma
KM12 colon = system: KM12 colon
OVCAR-3 ovarian = system: OVCAR-3 ovarian

CC1=NN(C(=O)CC(=O)NC(=O)/C=C\c2ccccc2)C(=O)C1N=Nc1ccc([N+](=O)[O-])cc1 (configuration not stated) gave a TGI (SW-620 colon) greater than 100 µM, a TGI (NCI/ADR-RES ovarian) greater than 100 µM and a TGI (A549 NSCLC) greater than 100 µM. For the same molecule, the TGI (MOLT-4 leukemia) was greater than 100 µM, the TGI (T-47D breast) was greater than 100 µM and the TGI (SNB-19 CNS) was greater than 100 µM. The TGI (U251 CNS) was greater than 100 µM, the TGI (HL-60(TB) leukemia) was greater than 100 µM and the TGI (HCT-116 colon) was greater than 100 µM. It also gave a TGI (HOP-92 NSCLC) of 97.4 µM, a TGI (RXF 393 renal) greater than 100 µM and a TGI (A498 renal) greater than 100 µM. It also gave a TGI (RPMI-8226 leukemia) greater than 100 µM, a TGI (BT-549 breast) of 83.5 µM and a TGI (NCI-H460 lung) greater than 100 µM. It also gave a TGI (IGROV1 ovarian) greater than 100 µM, a TGI (OVCAR-5 ovarian) greater than 100 µM and a TGI (SF-295 CNS) greater than 100 µM. It also gave a TGI (SK-OV-3 ovarian) greater than 100 µM, a TGI (HCC-2998 colon) greater than 100 µM and a TGI (SNB-75 CNS) greater than 100 µM. For the same molecule, the TGI (OVCAR-8 ovarian) was greater than 100 µM, the TGI (HS 578T breast) was greater than 100 µM and the TGI (SK-MEL-28 melanoma) was greater than 100 µM. For the same molecule, the TGI (SF-539 CNS) was greater than 100 µM, the TGI (MDA-N) was greater than 100 µM and the TGI (SN12C renal) was greater than 100 µM. For the same molecule, the TGI (NCI-H23 lung) was greater than 100 µM, the TGI (K-562 leukemia) was greater than 100 µM and the TGI (HCT-15 colon) was greater than 100 µM. For the same molecule, the TGI (786-0 renal) was greater than 100 µM, the TGI (UACC-62 melanoma) was greater than 100 µM and the TGI (CAKI-1 renal) was greater than 100 µM. The TGI (EKVX NSCLC) was greater than 100 µM, the TGI (TK-10 renal) was greater than 100 µM and the TGI (HT29 colon) was greater than 100 µM. It also gave a TGI (M14 melanoma) greater than 100 µM, a TGI (MCF7 breast) greater than 100 µM and a TGI (UO-31 renal) greater than 100 µM. It also gave a TGI (HOP-62 NSCLC) greater than 100 µM, a TGI (MDA-MB-231 breast) greater than 100 µM and a TGI (LOX IMVI melanoma) greater than 100 µM. It also gave a TGI (SF-268 CNS) greater than 100 µM, a TGI (PC-3 prostate) greater than 100 µM and a TGI (MDA-MB-435) greater than 100 µM. For the same molecule, the TGI (COLO 205 colon) was greater than 100 µM, the TGI (DU-145 prostate) was greater than 100 µM and the TGI (CCRF-CEM leukemia) was greater than 100 µM. It also gave a TGI (ACHN renal) greater than 100 µM, a TGI (MALME-3M melanoma) greater than 100 µM and a TGI (KM12 colon) greater than 100 µM. The TGI (OVCAR-3 ovarian) was greater than 100 µM.
